Source: PMC9854762, “Antibiofilm and Anti-Quorum-Sensing Activities of Novel Pyrazole and Pyrazolo[1,5-a]pyrimidine Derivatives as Carbonic Anhydrase I and II Inhibitors: Design, Synthesis, Radiosterilization, and Molecular Docking Studies” (Antibiotics, 2023)
≈ marks a conversion by molar mass, not a printed value.

What was measured:
A. baumannii DH-243 [1] = assay: Agar well-diffusion assay; format: cell-based; details: Acinetobacter baumannii, DH243; A. baumannii DH-243; 50 µL of 10 mM per well; read-out: Diameter of Inhibition Zones (AZOI)
Experimental: (§1) The synthesized compounds were initially screened for their in vitro antibacterial activity against the different Gram-positive and Gram-negative bacteria, tested using the agar well-diffusion assay. The turbidity of the bacterial suspensions was established to the 0.5 McFarland turbidity standard. The activity was performed on TS agar plates. The bacteria were spread on the surface of the agar plates, and 10 mm wells were screwed into the agar plates. The assay was performed under aseptic conditions. An aliquot of 50 µL of each tested compound (10 mM) was added to the wells, and the plates were incubated overnight at 37 °C. Both Erythromycin and Amikacin antibiotic disks were used as positive control, while DMSO solvent was used as a negative control in this study. The diameters of inhibition zones were measured and recorded in mm. A comparative study of the synthesized compounds was determined. The experiment was performed in triplicates.

E. coli DH-5987 [2] = assay: Agar well-diffusion assay; format: cell-based; details: Escherichia coli, DH5987, 50 µL of 10 mM per well, read-out: Diameter of Inhibition Zones (AZOI)
Experimental: as §1

E. faecalis DH-5478 [3] = assay: Agar well-diffusion assay; format: cell-based; details: Enterococcus faecalis, DH5478; E. faecalis DH-5478; 50 µL of 10 mM per well; read-out: Diameter of Inhibition Zones (AZOI)
Experimental: as §1

S. aureus DH-432 [4] = assay: Agar well-diffusion assay; format: cell-based; details: Staphylococcus aureus, DH432; S. aureus DH-432; 50 µL of 10 mM per well; read-out: Diameter of Inhibition Zones (AZOI)
Experimental: as §1

S. pyogenes DH-3467 [5] = assay: Agar well-diffusion assay; format: cell-based; details: Streptococcus pyogenes, DH3467; S. pyogenes DH-3467; 50 µL of 10 mM per well; read-out: Diameter of Inhibition Zones (AZOI)
Experimental: as §1

P. aeruginosa DH-5698 [6] = assay: Agar well-diffusion assay; format: cell-based, Pseudomonus aeruginosa; details: Pseudomonas aeruginosa, DH5698; P. aeruginosa DH-5698; 50 µL of 10 mM per well; read-out: Diameter of Inhibition Zones (AZOI)
Experimental: as §1

E. faecalis DH-5478 [7] = assay: Broth microdilution MIC/MBC; format: cell-based, Enterococcus faecalis; details: for MIC: Enterococcus faecalis, DH5478, 24 h, read-out: MIC (Mean ± SEM); for MBC/MIC: value in brackets
Experimental: (§2) The broth microdilution method was taken as a basis to detect the MICs of pyrazole compounds against tested clinical isolates, according to the Clinical Laboratory and Standards Institute guidelines. The broth cultures were used to prepare the bacterial inoculums, and the suspensions were adjusted to the standard 0.5 McFarland turbidity. Stock solutions of the synthesized pyrazoles were prepared in pure DMSO and further serially diluted with TS broth in the concentration range from 128 µg/mL to 0.0625 µg/mL. A well containing noninoculated TS broth, free of any antimicrobial agents, was also included to ensure the medium sterility, while Erythromycin and Amikacin served as positive controls. Bacterial growth was determined by adding 20 µL of 0.5% TTC (2,3,5-triphenyltetrazolium chloride) aqueous solution. […] All experiments were repeated three times. The bactericidal effect from each concentration of the pyrazole and pyrazolo[1,5-a]pyrimidine derivatives showing growth inhibition was further studied. For this study, a loopful of 5 µL was taken from each no-visible growth tube and streaked onto plates of TS agar.

S. aureus DH-432 [8] = assay: Broth microdilution MIC/MBC; format: cell-based, Staphylococcus aureus; details: for MIC: Staphylococcus aureus, DH432, 24 h, read-out: MIC (Mean ± SEM); for MBC/MIC: value in brackets
Experimental: as §2

S. pyogenes DH-3467 [9] = assay: Broth microdilution MIC/MBC; format: cell-based, Streptococcus pyogenes; details: for MIC: Streptococcus pyogenes, DH3467, 24 h, read-out: MIC (Mean ± SEM); for MBC/MIC: value in brackets
Experimental: as §2

A. baumannii DH-243 [10] = assay: Broth microdilution MIC/MBC; format: cell-based, Acinetobacter baumannii; details: for MIC: Acinetobacter baumannii, DH243, 24 h, read-out: MIC (Mean ± SEM); for MBC/MIC: value in brackets
Experimental: as §2

E. coli DH-5987 [11] = assay: Broth microdilution MIC/MBC; format: cell-based, Escherichia coli; details: E. coli DH-5987; for MBC/MIC: value in brackets; for MIC: Escherichia coli, DH5987, 24 h, read-out: MIC (Mean ± SEM)
Experimental: as §2

P. aeruginosa DH-5698 [12] = assay: Broth microdilution MIC/MBC; format: cell-based, Pseudomonus aeruginosa; details: for MIC: Pseudomonas aeruginosa, DH5698, 24 h, read-out: MIC (Mean ± SEM); for MBC/MIC: value in brackets
Experimental: as §2

| Compound | zone of inhibition at 10000 µM (A. baumannii DH-243 [1]) [mm] | zone of inhibition at 10000 µM (E. coli DH-5987 [2]) [mm] | zone of inhibition at 10000 µM (E. faecalis DH-5478 [3]) [mm] | zone of inhibition at 10000 µM (S. aureus DH-432 [4]) [mm] | zone of inhibition at 10000 µM (S. pyogenes DH-3467 [5]) [mm] | zone of inhibition at 10000 µM (P. aeruginosa DH-5698 [6]) [mm] | MIC (E. faecalis DH-5478 [7]) [mg/L] | MBC/MIC (E. faecalis DH-5478 [7]) | MIC (S. aureus DH-432 [8]) [mg/L] | MBC/MIC (S. aureus DH-432 [8]) | MIC (S. pyogenes DH-3467 [9]) [mg/L] | MBC/MIC (S. pyogenes DH-3467 [9]) | MIC (A. baumannii DH-243 [10]) [mg/L] | MBC/MIC (A. baumannii DH-243 [10]) | MBC/MIC (E. coli DH-5987 [11]) | MIC (E. coli DH-5987 [11]) [mg/L] | MIC (P. aeruginosa DH-5698 [12]) [mg/L] | MBC/MIC (P. aeruginosa DH-5698 [12]) | melting point [°C] |
| --- | --- | --- | --- | --- | --- | --- | --- | --- | --- | --- | --- | --- | --- | --- | --- | --- | --- | --- | --- |
| CCOC(=O)c1ccc(N=Nc2c(N=Cc3ccc(OC)cc3)n[nH]c2N)cc1 [Compound 5b, Ethyl-4-((5-amino-3-((4-methoxybenzylidene)amino)-1H-pyrazol-4-yl)diazenyl)benzoate] | 23.4 | 25.7 | 25.4 | 26.2 | 24.1 | 24.7 | 1.5 ± 0.3 (≈ 3.82 µM) | 1 | 1 ± 0.3 (≈ 2.55 µM) | 1 | 1 ± 0.2 (≈ 2.55 µM) | 1 | 2 ± 0.1 (≈ 5.1 µM) | 0.5 | 0.5 | 1 ± 0.2 (≈ 2.55 µM) | 2 ± 0.3 (≈ 5.1 µM) | 1 | 210 to 212 |
| CCOC(=O)c1ccc(N=Nc2c(N)nn3c2N=C(C)CC3=O)cc1 [Compound 7, ethyl 4-((2-amino-5-methyl-7-oxo-6,7-dihydropyrazolo[1,5-a]pyrimidin-3-yl)diazenyl)benzoate] | 24.5 | 25.8 | 23 | 25.3 | 22.8 | 24 | 2 ± 0.4 (≈ 5.88 µM) | 1 | 1 ± 0.3 (≈ 2.94 µM) | 1 | 1.5 ± 0.2 (≈ 4.41 µM) | 1 | 2 ± 0.3 (≈ 5.88 µM) | 1 | 0.5 | 1.5 ± 0.2 (≈ 4.41 µM) | 2 ± 0.3 (≈ 5.88 µM) | 0.5 | 296 to 298 |
| CCOC(=O)c1ccc(N=Nc2c(N)nn3c(-c4cccs4)cc(-c4ccccc4)nc23)cc1 [Compound 8a, Ethyl-4-((2-amino-5-phenyl-7-(thiophen-2-yl)pyrazolo[1,5-a]pyrimidin-3-yl)diazenyl)benzoate] | 19.7 | 23.4 | 20.6 | 22 | 21.4 | 21.6 | 4 ± 0.3 (≈ 8.54 µM) | 1 | 2 ± 0.2 (≈ 4.27 µM) | 1 | 4 ± 0.4 (≈ 8.54 µM) | 1 | 4 ± 0.2 (≈ 8.54 µM) | 2 | 1 | 2 ± 0.2 (≈ 4.27 µM) | 2 ± 0.3 (≈ 4.27 µM) | 1 | 200 to 202 |
| CCOC(=O)c1ccc(N=Nc2c(N)nn3c(-c4ccco4)cc(-c4ccccc4)nc23)cc1 [Compound 8b, Ethyl 4-((2-amino-7-(furan-2-yl)-5-phenylpyrazolo[1,5-a]pyrimidin-3-yl)diazenyl)benzoate] | 16.5 | 20.1 | 17.3 | 19.5 | 18.7 | 18.4 | 4 ± 0.1 (≈ 8.84 µM) | 2 | 4 ± 0.3 (≈ 8.84 µM) | 2 | 8 ± 0.2 (≈ 17.7 µM) | 1 | 8 ± 0.2 (≈ 17.7 µM) | 2 | 1 | 2 ± 0.3 (≈ 4.42 µM) | 4 ± 0.1 (≈ 8.84 µM) | 2 | 212 to 214 |
| CCOC(=O)c1ccc(N=Nc2c(N)nn3c(-c4ccc(Cl)cc4)cc(-c4ccccc4)nc23)cc1 [Compound 8c, Ethyl-4-((2-amino-7-(4-chlorophenyl)-5-phenylpyrazolo[1,5-a]pyrimidin-3-yl)diazenyl)benzoate] | 15.2 | 17.8 | 15.1 | 16.1 | 15.4 | 16.3 | 8 ± 0.2 (≈ 16.1 µM) | 2 | 4 ± 0.1 (≈ 8.05 µM) | 1 | 4 ± 0.2 (≈ 8.05 µM) | 2 | 8 ± 0.4 (≈ 16.1 µM) | 2 | 2 | 4 ± 0.1 (≈ 8.05 µM) | 8 ± 0.3 (≈ 16.1 µM) | 2 |  |
